According to PMC8242589, “Cardiac Safety of Kinase Inhibitors – Improving Understanding and Prediction of Liabilities in Drug Discovery Using Human Stem Cell-Derived Models” (Frontiers in Cardiovascular Medicine, 2021):
Read-outs that look alike come from different tables or passages of the source.

How the values were obtained:
Format in all cases: cell-based, human
[1] = tested on: hSC-CMs (Cor.4U Cardiomyocytes); assay: Apoptosis assay (CellEvent Caspase-3/7 Green, IncuCyte ZOOM kinetics over 24 h); design: key to Caspase / Caspase MEAN: % of time-matched vehicle control (green object area); details: for Caspase / activity at 0.03 µM / activity at 0.3 µM / activity at 3 µM / activity at 30 µM: normalized to time-matched vehicle control; for activity at 0.03 µM / activity at 0.3 µM / activity at 3 µM / activity at 30 µM: Homo sapiens, Cardiomyocyte; for Caspase MEAN: DMSO = 100
Procedure: Cor.4U® Cardiomyocytes ([…], Netherlands) were cultured in 96-well plates at density of 25,000 - 30,000 cells per well. Cells were maintained at 5% CO2 and 37 °C for 4 days prior to experiments. […] The plates were incubated 2 h before compound treatment in the IncuCyte ZOOM (ESSEN BioScience, Ann Arbor, Michigan) to set a baseline before the 24 h compound treatment. […] Imaging was done using 10x microscope objective of the IncuCyteZOOM with four images per well-taken every 2 h in both phase-contrast and green fluorescence. The fluorescent nuclear signal of the apoptotic cells was separated from background with the integrated object counting algorithm, adjusted to cardiomyocytes, and the calculated total green object area per well (μm^2/well) plotted against time. Data were normalized to those of the time-matched vehicle control. Data were representative of at least three replicates per concentration.

[2] = tested on: hSC-CMs (Cor.4U Cardiomyocytes); assay: CardioExcyte 96 impedance and EFP recording (beating rate, base impedance); details: for BR / Base Imp / activity at 0.03 µM / activity at 0.3 µM / activity at 3 µM / activity at 30 µM: vs baseline before drug (taken as 100%); for activity at 0.03 µM / activity at 0.3 µM / activity at 3 µM / activity at 30 µM: Homo sapiens, Cardiomyocyte
Procedure: Cor.4U® Cardiomyocytes (Ncardia, Netherlands) were cultured in 96-well plates at density of 25,000 – 30,000 cells per well. Cells were maintained at 5% CO2 and 37 °C for 4 days prior to experiments.
Functional monitoring of cardiomyocytes was done using CardioExcyte® 96 (Nanion technologies GmbH, Germany). Extracellular field potential (EFP) and impedance signals were recorded from hSC-CMs that formed monolayers in the wells of the NSP-96 plate. Beating Rate (BR, per minute) was calculated as the reciprocal of the inter-spike interval (ISI) in EFP signal. Impedance signals from spontaneously beating hSC-CMs were recorded with a sampling rate of 1 ms (1 kHz), and EFP data were collected at 0.1ms (10 kHz). Data acquisition was controlled by CardioExcyte® 96 Control software as previously described ([22]). The functional parameters recorded in each concentration of test items were compared to the base line values before drug addition (taken as 100%) to define fractional change.

[3] = tested on: hSC-CMs (Cor.4U Cardiomyocytes); assay: ATP assay (CellTiter-Glo Luminescent Cell Viability Assay); details: for ATP: normalized to time-matched DMSO control
Procedure: Cor.4U® Cardiomyocytes (Ncardia, Netherlands) were cultured in 96-well plates at density of 25,000 – 30,000 cells per well. Cells were maintained at 5% CO2 and 37 °C for 4 days prior to experiments. The cell culture medium (Cor4U® Complete Culture Medium, cat# Ax-M-HC250E, Axiogenesis AG, Cologne, Germany) was changed every 24 h and was replaced by serum-free BMCC medium (cat# Ax-M-BMCC259, Axiogenesis AG, Cologne, Germany) 12 h prior to drug addition.
The CellTiter-Glo Luminescent Cell Viability Assay (cat# G7572, Promega, USA) was performed for quantification of the cellular ATP concentration according to manufacturer's instructions. Plates were shaken for 2 min in the dark, incubated at ambient temperature for 10 min before measuring luminescence (Integration time 0.1 seconds per well) with Luminescence Counter (Synergy H1, BioTek Instruments, Inc., Winooski, Vermont). The measured ATP concentration values were normalized to the time-matched DMSO controls. Data are representative of at least three replicates per concentration.

Question: `CCOC(=O)c1cnc2ccc(-c3cncc(NS(=O)(=O)c4ccccc4)c3)cn12` [HS-173] was tested. Which “Apoptosis (caspase-3/7 activation), result in words” value [1] did it give?
Answer: induced apoptosis in hSC-CMs with a fast onset

Question: And the Caspase ([1]; 0.03 µM, 2h)?
Answer: 167

Question: What about the Caspase ([1]; 0.03 µM, 24h) of the same molecule?
Answer: 80

Question: And the Caspase ([1]; 0.1 µM, 2h)?
Answer: 138

Question: What about the Caspase ([1]; 0.1 µM, 24h) of the same molecule?
Answer: 151

Question: And the Caspase ([1]; 0.3 µM, 2h)?
Answer: 123

Question: And the Caspase ([1]; 0.3 µM, 24h)?
Answer: 200

Question: And the Caspase ([1]; 1 µM, 2h)?
Answer: 120

Question: What about the Caspase ([1]; 1 µM, 24h) of the same molecule?
Answer: 373

Question: And the “Time to reach the maximum number of apoptotic cells” value ([1]; hSC-CMs, monitored over 24 h)?
Answer: ≤ 12 h

Question: And the BR ([2]; 0.03 µM, 2h)?
Answer: 105

Question: And the “Base Imp” value ([2]; 0.03 µM, 2h)?
Answer: 87

Question: What about the BR ([2]; 0.03 µM, 24h) of the same molecule?
Answer: 97

Question: And the “Base Imp” value ([2]; 0.03 µM, 24h)?
Answer: 87

Question: And the BR ([2]; 0.1 µM, 2h)?
Answer: 93

Question: And the “Base Imp” value ([2]; 0.1 µM, 2h)?
Answer: 83

Question: And the BR ([2]; 0.1 µM, 24h)?
Answer: 89

Question: What about the “Base Imp” value ([2]; 0.1 µM, 24h) of the same molecule?
Answer: 85

Question: And the BR ([2]; 0.3 µM, 2h)?
Answer: 85

Question: And the “Base Imp” value ([2]; 0.3 µM, 2h)?
Answer: 81

Question: What about the BR ([2]; 0.3 µM, 24h) of the same molecule?
Answer: 84

Question: And the “Base Imp” value ([2]; 0.3 µM, 24h)?
Answer: 72

Question: And the BR ([2]; 1 µM, 2h)?
Answer: 86

Question: What about the “Base Imp” value ([2]; 1 µM, 2h) of the same molecule?
Answer: 69

Question: And the BR ([2]; 1 µM, 24h)?
Answer: 75

Question: And the “Base Imp” value ([2]; 1 µM, 24h)?
Answer: 67

Question: And the “Reduction of base impedance” value ([2]; hSC-CMs, 2 and 24 h)?
Answer: more than 20%

Question: And the “Reduction of beating rate” value ([2]; hSC-CMs, 2 and 24 h)?
Answer: more than 20%

Question: And the ATP ([3]; 0.03 µM, 2h)?
Answer: 89

Question: And the ATP ([3]; 0.03 µM, 24h)?
Answer: 98

Question: And the ATP ([3]; 0.1 µM, 2h)?
Answer: 87

Question: What about the ATP ([3]; 0.1 µM, 24h) of the same molecule?
Answer: 99

Question: And the ATP ([3]; 0.3 µM, 2h)?
Answer: 86

Question: What about the ATP ([3]; 0.3 µM, 24h) of the same molecule?
Answer: 90

Question: What about the ATP ([3]; 1 µM, 2h) of the same molecule?
Answer: 86

Question: What about the ATP ([3]; 1 µM, 24h) of the same molecule?
Answer: 83

Question: And the “Decrease of ATP level” value ([3]; hSC-CMs, after 24 h of incubation)?
Answer: 20–25%

Question: How did the activity at 0.03 µM ([1]; 0.03 µM, 2h) turn out when `Cn1c(=O)n(-c2ccc(C(C)(C)C#N)cc2)c2c3cc(-c4cnc5ccccc5c4)ccc3ncc21` [NVP-BEZ235, Dactolisib] was run?
Answer: 242%

Question: And the activity at 0.03 µM ([1]; 0.03 µM, 24h)?
Answer: 188%

Question: And the activity at 0.3 µM ([1]; 0.3 µM, 2h)?
Answer: 148%

Question: What about the activity at 0.3 µM ([1]; 0.3 µM, 24h) of the same molecule?
Answer: 320%

Question: And the activity at 3 µM ([1]; 2h)?
Answer: 72%

Question: What about the activity at 3 µM ([1]; 24h) of the same molecule?
Answer: 228%

Question: And the activity at 30 µM ([1]; 2h)?
Answer: 86%

Question: And the activity at 30 µM ([1]; 24h)?
Answer: 355%

Question: And the “Apoptosis (caspase-3/7 activation), result in words” value ([1]; hSC-CMs, monitored over 24 h)?
Answer: induced apoptosis in hSC-CMs with a fast onset

Question: What about the “Time to reach the maximum number of apoptotic cells” value ([1]; hSC-CMs, monitored over 24 h) of the same molecule?
Answer: ≤ 12 h

Question: And the activity at 0.03 µM ([2]; 0.03 µM, 2h, read-out: BR)?
Answer: 99%

Question: What about the activity at 0.03 µM ([2]; 0.03 µM, 2h, read-out: Base Imp) of the same molecule?
Answer: 88%

Question: And the activity at 0.03 µM ([2]; 0.03 µM, 24h, read-out: BR)?
Answer: 90%

Question: What about the activity at 0.03 µM ([2]; 0.03 µM, 24h, read-out: Base Imp) of the same molecule?
Answer: 85%

Question: And the activity at 0.3 µM ([2]; 0.3 µM, 2h, read-out: BR)?
Answer: 73%

Question: And the activity at 0.3 µM ([2]; 0.3 µM, 2h, read-out: Base Imp)?
Answer: 86%

Question: What about the activity at 0.3 µM ([2]; 0.3 µM, 24h, read-out: BR) of the same molecule?
Answer: 57%

Question: And the activity at 0.3 µM ([2]; 0.3 µM, 24h, read-out: Base Imp)?
Answer: 75%

Question: And the activity at 3 µM ([2]; 2h, read-out: BR)?
Answer: 39%

Question: What about the activity at 3 µM ([2]; 2h, read-out: Base Imp) of the same molecule?
Answer: 71%

Question: And the activity at 3 µM ([2]; 24h, read-out: BR)?
Answer: 14%

Question: And the activity at 3 µM ([2]; 24h, read-out: Base Imp)?
Answer: 52%

Question: And the activity at 30 µM ([2]; 2h, read-out: BR)?
Answer: 19%

Question: And the activity at 30 µM ([2]; 2h, read-out: Base Imp)?
Answer: 51%

Question: What about the activity at 30 µM ([2]; 24h, read-out: BR) of the same molecule?
Answer: 30%

Question: What about the activity at 30 µM ([2]; 24h, read-out: Base Imp) of the same molecule?
Answer: 45%

Question: And the “Effect on cardiomyocyte function in 3D surface plots (beating rate, base impedance, ATP), in words” value ([2]; hSC-CMs, 2 and 24 h)?
Answer: pronounced effects

Question: And the “Reduction of base impedance” value ([2]; hSC-CMs, 2 and 24 h)?
Answer: more than 20%

Question: What about the “Reduction of beating rate” value ([2]; hSC-CMs, 2 and 24 h) of the same molecule?
Answer: more than 20%

Question: With `CN[C@@H]1C[C@H]2O[C@@](C)([C@@H]1OC)n1c3ccccc3c3c4c(c5c6ccccc6n2c5c31)C(=O)NC4` [Staurosporine] as the molecule, how does the “Caspase MEAN” value ([1]; 1 µM, Time 2.75) read?
Answer: 85

Question: What about the “Caspase MEAN” value ([1]; 1 µM, Time 4.75) of the same molecule?
Answer: 254

Question: What about the “Caspase MEAN” value ([1]; 1 µM, Time 6.75) of the same molecule?
Answer: 1532

Question: What about the “Caspase MEAN” value ([1]; 1 µM, Time 8.75) of the same molecule?
Answer: 3137

Question: And the “Caspase MEAN” value ([1]; 1 µM, Time 10.75)?
Answer: 4841

Question: And the “Caspase MEAN” value ([1]; 1 µM, Time 12.75)?
Answer: 5989

Question: And the “Caspase MEAN” value ([1]; 1 µM, Time 14.75)?
Answer: 7301

Question: What about the “Caspase MEAN” value ([1]; 1 µM, Time 16.75) of the same molecule?
Answer: 7458

Question: And the “Caspase MEAN” value ([1]; 1 µM, Time 18.75)?
Answer: 8506

Question: And the “Caspase MEAN” value ([1]; 1 µM, Time 20.75)?
Answer: 7604

Question: And the “Caspase MEAN” value ([1]; 1 µM, Time 22.75)?
Answer: 7381

Question: What about the “Caspase MEAN” value ([1]; 1 µM, Time 24.75) of the same molecule?
Answer: 7608

Question: And the “Caspase MEAN” value ([1]; 1 µM, Time 26.75)?
Answer: 7240
